Laboratory results from patent US8779142B2, “Azabicyclo compound and salt thereof” (Taiho Pharmaceutical Co., Ltd., priority 2009, dated 2014).
Like-named read-outs stand apart in the source and are kept apart here.

Tests used:
[1] = system: SK-BR-3 cells; experiment: Measurement of cell growth inhibition (crystal violet staining method); format: cell-based
[2] = target: human HSP90 alpha protein (HSP90 N-terminal protein, amino acids 2-236) (Homo sapiens (Human), UniProt P07900); experiment: Measurement of HSP90-binding activity (AlphaScreen competitive assay, biotin-labeled geldanamycin); settings: read-out: HSP-binding activity IC50
[3] = Homo sapiens, breast cancer SK-BR-3 cells, 72 hr culture with test substance
[4] = concentration inhibiting binding of biotin-labeled geldanamycin (40 nM) to purified HSP90 to 50% of control

Row | Compound | IC50 [1, 3] | IC50 [2, 4] | IC50 ([1]; Homo sapiens, SK-BR-3, 72 h) | IC50 [2] | IC50 [1]
1 | Cc1cc(C(N)=O)ncc1-n1nc(C(C)C)c2c(-n3cnc(-c4cnn(C)c4)c3)ccnc21 [Example 118, 5-{3-Isopropyl-4-(4-(1-methyl-1H-pyrazol-4-yl)-1H-imidazol-1-yl)-1H-pyrazolo[3,4-b]pyridin-1-yl}-4-methylpicolinamide] | 0.55 µM | 0.21 µM |  |  | 
2 | COc1cc(C(N)=O)ccc1-n1nc(C(C)C)c2c(-n3cnc(-c4cccnc4)c3)ccnc21 [Example 142, 4-{3-Isopropyl-4-(4-(pyridin-3-yl)-1H-imidazol-1-yl)-1H-pyrazolo[3,4-b]pyridin-1-yl}-3-methoxybenzamide] | 0.22 µM | 0.12 µM |  |  | 
3 | CC(C)Nc1cc(C(N)=O)ccc1-n1nc(C(C)C)c2c(-n3cnc(-c4cnn(C)c4)c3)ccnc21 [Example 120, 4-{3-Isopropyl-4-(4-(1-methyl-1H-pyrazol-4-yl)-1H-imidazol-1-yl)-1H-pyrazolo[3,4-b]pyridin-1-yl}-3-(isopropylamino)benzamide] | 0.14 µM | 0.2 µM |  |  | 
4 | Cn1cc(-c2cn(-c3ccnc4c3c(C(F)(F)F)nn4-c3ccc(C(N)=O)cc3C3CC3)cn2)cn1 [Example 173, 3-(Cyclopropyl)-4-{4-(4-(1-methyl-1H-pyrazol-4-yl)-1H-imidazol-1-yl)-3-(trifluoromethyl)-1H-pyrazolo[3,4-b]pyridin-1-yl}benzamide] | 0.08 µM | 0.12 µM |  |  | 
5 | CCCc1cc(C(N)=O)ccc1-n1nc(C(F)(F)F)c2c(-n3cnc(-c4cnn(C)c4)c3)ccnc21 [Example 156, 4-{4-(4-(1-Methyl-1H-pyrazol-4-yl)-1H-imidazol-1-yl)-3-(trifluoromethyl)-1H-pyrazolo[3,4-b]pyridin-1-yl}-3-propylbenzamide] | 0.04 µM | 0.07 µM |  |  | 
6 | Cn1cc(-c2cn(-c3ccnc4c3c(C(F)(F)F)nn4-c3ccc(C(N)=O)cc3NC3CCC3)cn2)cn1 [Example 165, 3-(Cyclobutylamino)-4-{4-(4-(1-methyl-1H-pyrazol-4-yl)-1H-imidazol-1-yl)-3-(trifluoromethyl)-1H-pyrazolo[3,4-b]pyridin-1-yl}benzamide] | 0.07 µM | 0.12 µM |  |  | 
7 | Cn1cc(-c2cn(-c3ccnc4c3c(C(F)(F)F)nn4-c3ccc(C(N)=O)cc3Br)cn2)cn1 [Example 170, 3-Bromo-4-{4-(4-(1-methyl-1H-pyrazol-4-yl)-1H-imidazol-1-yl)-3-(trifluoromethyl)-1H-pyrazolo[3,4-b]pyridin-1-yl}benzamide] | 0.37 µM | 0.21 µM |  |  | 
8 | CCNc1cc(-n2nc(C(F)(F)F)c3c(-n4cnc(-c5cccnc5)c4)ccnc32)ccc1C(N)=O [Example 178, 2-(Ethylamino)-4-{4-(4-(pyridin-3-yl)-1H-imidazol-1-yl)-3-(trifluoromethyl)-1H-pyrazolo[3,4-b]pyridin-1-yl}benzamide] | 0.08 µM | 0.53 µM |  |  | 
9 | CCCc1cc(C(N)=O)ccc1-n1nc(C(C)C)c2c(-n3cnc(-c4cnn(C)c4)c3)ccnc21 [Example 103, 4-{3-Isopropyl-4-(4-(1-methyl-1H-pyrazol-4-yl)-1H-imidazol-1-yl)-1H-pyrazolo[3,4-b]pyridin-1-yl}-3-propylbenzamide] | 0.17 µM | 0.12 µM |  |  | 
10 | CCNc1cc(-n2nc(C(C)C)c3c(-n4cnc(-c5cccnc5)c4)ccnc32)ccc1C(N)=O [Example 139, 2-(Ethylamino)-4-{3-isopropyl-4-(4-(pyridin-3-yl)-1H-imidazol-1-yl)-1H-pyrazolo[3,4-b]pyridin-1-yl}benzamide] | 0.28 µM | 0.57 µM |  |  | 
11 | Cn1cc(-c2cn(-c3ccnc4c3c(C(F)(F)F)nn4-c3ccc(C(N)=O)cc3NC3CCCC3)cn2)cn1 [Example 166, 3-(Cyclopentylamino)-4-{4-(4-(1-methyl-1H-pyrazol-4-yl)-1H-imidazol-1-yl)-3-(trifluoromethyl)-1H-pyrazolo[3,4-b]pyridin-1-yl}benzamide] | 0.11 µM | 0.14 µM |  |  | 
12 | NC(=O)c1ccc(-n2cc(C(F)(F)F)c3c(-c4cnc5ccccc5c4)ccnc32)cc1N[C@H]1CC[C@H](O)CC1 [Example 43, 2-(Trans-4-hydroxycyclohexylamino)-4-{4-(quinolin-3-yl)-3-(trifluoromethyl)-1H-pyrrolo[2,3-b]pyridin-1-yl}benzamide] | 0.01 µM | 0.1 µM |  |  | 
13 | CC(C)c1nn(-c2ccc(C(N)=O)c(NCC(F)F)c2)c2nccc(-n3cnc(-c4cnn(C)c4)c3)c12 [Example 113, 2-(2,2-Difluoroethylamino)-4-{3-isopropyl-4-(4-(1-methyl-1H-pyrazol-4-yl)-1H-imidazol-1-yl)-1H-pyrazolo[3,4-b]pyridin-1-yl}benzamide] | 0.07 µM | 0.26 µM |  |  | 
14 | CCn1cc(-c2cn(-c3ccnc4c3c(C(C)C)nn4-c3ccc(C(N)=O)cc3Cl)cn2)cn1 [Example 145, 3-Chloro-4-{4-(4-(1-ethyl-1H-pyrazol-4-yl)-1H-imidazol-1-yl)-3-isopropyl-1H-pyrazolo[3,4-b]pyridin-1-yl}benzamide] | 1.5 µM | 0.63 µM |  |  | 
15 | CC(C)n1cc(-c2cn(-c3ccnc4c3c(C(F)(F)F)nn4-c3ccc(C(N)=O)cc3N)cn2)cn1 [Example 186, 3-Amino-4-{4-(4-(1-isopropyl-1H-pyrazol-4-yl)-1H-imidazol-1-yl)-3-(trifluoromethyl)-1H-pyrazolo[3,4-b]pyridin-1-yl}benzamide] | 1.93 µM | 0.8 µM |  |  | 
16 | CC(C)NC(=O)c1ccc(-c2cn(-c3ccnc4c3c(C(C)C)nn4-c3ccc(C(N)=O)cc3Cl)cn2)cc1 [Example 150, 4-{1-(1-(4-Carbamoyl-2-chlorophenyl)-3-isopropyl-1H-pyrazolo[3,4-b]pyridin-4-yl)-1H-imidazol-4-yl}-N-isopropylbenzamide] | 1.33 µM | 0.93 µM |  |  | 
17 | NC(=O)c1ccc(-n2nc(C(F)(F)F)c3c(-n4cnc(-c5cccnc5)c4)ccnc32)c(NC2CCCC2)c1 [Example 183, 3-(Cyclopentylamino)-4-{4-(4-(pyridin-3-yl)-1H-imidazol-1-yl)-3-(trifluoromethyl)-1H-pyrazolo[3,4-b]pyridin-1-yl}benzamide] | 0.15 µM | 0.33 µM |  |  | 
18 | Cn1cc(-c2cn(-c3ccnc4c3c(C(F)(F)F)nn4-c3ccc(C(N)=O)cc3NCC(F)F)cn2)cn1 [Example 167, 3-(2,2-Difluoroethylamino)-4-{4-(4-(1-methyl-1H-pyrazol-4-yl)-1H-imidazol-1-yl)-3-(trifluoromethyl)-1H-pyrazolo[3,4-b]pyridin-1-yl}benzamide] | 0.08 µM | 0.1 µM |  |  | 
19 | CC(C)c1nn(-c2ccc(C(N)=O)c(NC3CCC(O)CC3)c2)c2nccc(-n3cnc(-c4ccoc4)c3)c12 (centres unmarked) [Example 90, 4-{4-(4-(Furan-3-yl)-1H-imidazol-1-yl)-3-isopropyl-1H-pyrazolo[3,4-b]pyridin-1-yl}-2-(4-hydroxycyclohexylamino)benzamide] | 0.04 µM | 0.23 µM |  |  | 
20 | CC(C)c1nn(-c2ccc(C(N)=O)c(N[C@H]3CC[C@H](O)CC3)c2)c2cncc(-c3cnc4ccccc4c3)c12 [Example 5, 2-(Trans-4-hydroxycyclohexylamino)-4-{3-isopropyl-4-(quinolin-3-yl)-1H-pyrazolo[3,4-c]pyridin-1-yl}benzamide] |  |  | 0.11 µM | 0.16 µM | 
21 | 4-{4-(4-(1-(Hydroxyethyl)-1H-pyrazol-4-yl)-1H-imidazol-1-yl)-3-isopropyl-1H-pyrazolo[3,4-b]pyridin-1-yl}-2-(isopropyl)benzamide [Example 148] |  |  |  | 0.4 µM | 0.24 µM
22 | Cc1cn(-c2ccc(C(N)=O)c(N[C@@H]3CCCC[C@H]3N)c2)c2nccc(-c3cnc4ccccc4c3)c12 (relative stereo) [Example 64, 2-(Trans-2-aminocyclohexylamino)-4-{3-methyl-4-(quinolin-3-yl)-1H-pyrrolo[2,3-b]pyridin-1-yl}benzamide] | 0.59 µM | 0.42 µM |  |  | 
23 | CCc1cn(-c2ccc(C(N)=O)c(NC3CCCCC3N)c2)c2nccc(-c3cnc4ccccc4c3)c12 (centres unmarked) [Example 70, 2-(2-Aminocyclohexylamino)-4-{3-ethyl-4-(quinolin-3-yl)-1H-pyrrolo[2,3-b]pyridin-1-yl}benzamide] | 0.08 µM | 0.23 µM |  |  | 
24 | COCCNc1cc(C(N)=O)ccc1-n1nc(C(F)(F)F)c2c(-n3cnc(-c4cnn(C)c4)c3)ccnc21 [Example 168, 3-(2-Methoxyethylamino)-4-{4-(4-(1-methyl-1H-pyrazol-4-yl)-1H-imidazol-1-yl)-3-(trifluoromethyl)-1H-pyrazolo[3,4-b]pyridin-1-yl}benzamide] | 0.06 µM | 0.07 µM |  |  | 
25 | CC(C)c1nn(-c2ccc(C(N)=O)cc2CN2CCOCC2)c2nccc(-n3cnc(-c4cnn(C)c4)c3)c12 [Example 127, 4-{3-Isopropyl-4-(4-(1-methyl-1H-pyrazol-4-yl)-1H-imidazol-1-yl)-1H-pyrazolo[3,4-b]pyridin-1-yl}-3-(morpholinomethyl)benzamide] | 1.56 µM | 0.23 µM |  |  | 
26 | CC(C)c1nn(-c2ccc(C(N)=O)c(NCC(C)(C)C)c2)c2nccc(-c3cnc4ccccc4c3)c12 [Example 25, 4-{3-Isopropyl-4-(quinolin-3-yl)-1H-pyrazolo[3,4-b]pyridin-1-yl}-2-(neopentylamino)benzamide] | 0.07 µM | 1.27 µM |  |  | 
27 | CC(C)c1nn(-c2ccc(C(N)=O)c(NCCCN(C)C)c2)c2nccc(-c3cnc4ccccc4c3)c12 [Example 29, 2-{3-(Dimethylamino)propylamino}-4-{3-isopropyl-4-(quinolin-3-yl)-1H-pyrazolo[3,4-b]pyridin-1-yl}benzamide] | 0.24 µM | 0.32 µM |  |  | 
28 | CC(C)c1nn(-c2ccc(C(N)=O)cc2N)c2nccc(-n3cnc(-c4cnn(C)c4)c3)c12 [Example 107, 3-Amino-4-{3-isopropyl-4-(4-(1-methyl-1H-pyrazol-4-yl)-1H-imidazol-1-yl)-1H-pyrazolo[3,4-b]pyridin-1-yl}benzamide] | 0.9 µM | 0.2 µM |  |  | 
